Measured values: BindingDB's records for doi:10.1038/sj.bjp.0702632 (Roche Bioscience, 1999)

Assays:
[1] = target: 5-hydroxytryptamine receptor 2B (Homo sapiens, UniProt P41595)
[2] = target: 5-hydroxytryptamine receptor 2A (Homo sapiens, UniProt P28223)
[3] = target: T1, 5-hydroxytryptamine receptor 2C (Homo sapiens, UniProt P28335)
T1 sequence (P28335 whole entry): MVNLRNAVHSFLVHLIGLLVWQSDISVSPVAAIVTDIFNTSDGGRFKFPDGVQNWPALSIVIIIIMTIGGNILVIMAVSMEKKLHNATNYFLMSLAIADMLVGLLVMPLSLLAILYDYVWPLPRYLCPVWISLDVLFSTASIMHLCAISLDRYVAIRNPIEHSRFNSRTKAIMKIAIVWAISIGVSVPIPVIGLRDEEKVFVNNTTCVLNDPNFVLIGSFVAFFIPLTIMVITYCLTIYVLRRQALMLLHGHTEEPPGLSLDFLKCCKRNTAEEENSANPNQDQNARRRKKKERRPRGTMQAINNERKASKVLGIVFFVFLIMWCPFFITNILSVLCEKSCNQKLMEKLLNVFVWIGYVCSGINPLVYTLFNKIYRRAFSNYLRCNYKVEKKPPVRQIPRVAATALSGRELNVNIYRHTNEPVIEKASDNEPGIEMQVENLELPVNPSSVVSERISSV

[4] = target: T2, 5-hydroxytryptamine receptor 3A (Homo sapiens, UniProt P46098)
T2 sequence (P46098 whole entry): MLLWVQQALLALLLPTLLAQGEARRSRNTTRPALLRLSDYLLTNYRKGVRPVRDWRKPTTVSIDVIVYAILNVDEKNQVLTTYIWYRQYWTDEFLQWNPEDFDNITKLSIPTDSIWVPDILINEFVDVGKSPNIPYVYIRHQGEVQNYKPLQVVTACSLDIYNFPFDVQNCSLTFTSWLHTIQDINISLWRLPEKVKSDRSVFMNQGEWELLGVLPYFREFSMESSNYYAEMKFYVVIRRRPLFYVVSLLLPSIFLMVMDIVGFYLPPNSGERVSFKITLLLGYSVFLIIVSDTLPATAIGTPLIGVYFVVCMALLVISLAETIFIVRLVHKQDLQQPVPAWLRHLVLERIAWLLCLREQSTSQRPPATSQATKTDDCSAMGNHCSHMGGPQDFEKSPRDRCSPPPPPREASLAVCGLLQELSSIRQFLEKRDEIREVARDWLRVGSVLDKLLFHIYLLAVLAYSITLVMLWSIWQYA

[5] = target: 5-hydroxytryptamine receptor 6 (Homo sapiens, UniProt P50406)
[6] = target: 5-hydroxytryptamine receptor 5A (Homo sapiens, UniProt P47898)
Chain of 5-hydroxytryptamine receptor 5A (P47898 whole entry): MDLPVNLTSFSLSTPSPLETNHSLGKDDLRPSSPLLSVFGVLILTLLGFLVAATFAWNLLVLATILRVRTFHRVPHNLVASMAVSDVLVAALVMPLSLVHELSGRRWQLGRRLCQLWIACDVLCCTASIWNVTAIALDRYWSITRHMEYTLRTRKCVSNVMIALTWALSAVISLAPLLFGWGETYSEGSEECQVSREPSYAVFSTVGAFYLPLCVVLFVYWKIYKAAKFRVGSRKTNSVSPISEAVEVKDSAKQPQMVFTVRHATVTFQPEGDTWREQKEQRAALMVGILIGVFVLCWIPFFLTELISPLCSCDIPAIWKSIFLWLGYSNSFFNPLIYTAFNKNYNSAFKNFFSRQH

Chain of 5-hydroxytryptamine receptor 2B (P41595 whole entry): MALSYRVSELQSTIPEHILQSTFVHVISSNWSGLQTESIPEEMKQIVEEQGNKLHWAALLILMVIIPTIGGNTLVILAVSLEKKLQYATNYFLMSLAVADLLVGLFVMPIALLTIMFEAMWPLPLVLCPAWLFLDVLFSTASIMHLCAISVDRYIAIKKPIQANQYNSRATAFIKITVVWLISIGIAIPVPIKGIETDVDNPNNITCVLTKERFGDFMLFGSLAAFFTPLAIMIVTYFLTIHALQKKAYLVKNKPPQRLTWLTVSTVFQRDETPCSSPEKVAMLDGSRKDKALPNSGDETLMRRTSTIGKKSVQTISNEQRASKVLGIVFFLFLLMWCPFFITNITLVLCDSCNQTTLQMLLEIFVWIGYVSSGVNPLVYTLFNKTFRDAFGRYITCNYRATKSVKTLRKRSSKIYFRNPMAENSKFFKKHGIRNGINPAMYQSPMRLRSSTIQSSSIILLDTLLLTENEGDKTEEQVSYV
Chain of 5-hydroxytryptamine receptor 2A (P28223 whole entry): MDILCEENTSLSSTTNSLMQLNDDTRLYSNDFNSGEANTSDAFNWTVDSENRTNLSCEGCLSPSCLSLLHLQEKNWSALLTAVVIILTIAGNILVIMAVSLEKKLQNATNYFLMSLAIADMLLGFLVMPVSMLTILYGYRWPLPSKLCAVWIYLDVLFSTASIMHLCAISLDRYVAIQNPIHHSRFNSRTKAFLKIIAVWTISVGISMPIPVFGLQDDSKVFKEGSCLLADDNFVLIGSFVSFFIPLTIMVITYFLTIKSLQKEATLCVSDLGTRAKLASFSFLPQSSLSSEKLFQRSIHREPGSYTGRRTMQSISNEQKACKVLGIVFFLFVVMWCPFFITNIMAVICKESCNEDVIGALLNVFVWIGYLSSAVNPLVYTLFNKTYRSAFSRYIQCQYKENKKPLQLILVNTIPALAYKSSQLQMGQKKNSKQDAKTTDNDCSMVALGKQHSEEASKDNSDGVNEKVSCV
Chain of 5-hydroxytryptamine receptor 6 (P50406 whole entry): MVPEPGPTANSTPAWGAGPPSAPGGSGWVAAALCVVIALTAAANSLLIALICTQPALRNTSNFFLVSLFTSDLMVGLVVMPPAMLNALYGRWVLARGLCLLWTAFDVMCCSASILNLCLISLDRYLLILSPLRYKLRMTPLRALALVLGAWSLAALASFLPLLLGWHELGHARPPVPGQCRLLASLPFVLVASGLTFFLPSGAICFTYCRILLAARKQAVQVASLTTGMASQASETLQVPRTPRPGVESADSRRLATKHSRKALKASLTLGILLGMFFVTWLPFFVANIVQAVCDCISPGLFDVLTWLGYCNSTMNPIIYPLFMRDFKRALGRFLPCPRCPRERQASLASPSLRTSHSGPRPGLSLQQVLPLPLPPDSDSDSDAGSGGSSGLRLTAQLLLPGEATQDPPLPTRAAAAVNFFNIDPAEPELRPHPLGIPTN

Compound	Ki [1] [nM]	Ki [2] [nM]	Ki [3] [nM]	Ki [4] [nM]	Ki [5] [nM]	Ki [6] [nM]
COc1ccc(CC2NCCc3c2[nH]c2ccccc32)cc1OC (stereo not drawn) [LY-23728]	1					
CC(C)c1cc(-c2ccc(F)c3ccccc23)nc(N)n1 [RS-127445]	0.32	501	398	1000	1000	1000
Cc1nc2sccn2c(=O)c1CCN1CCC(=C(c2ccc(F)cc2)c2ccc(F)cc2)CC1	1					
